Data on twelve compounds can be found in ChEMBL document CHEMBL1131560, “Preparation of 9-deoxo-4"-deoxy-6,9-epoxyerythromycin lactams "motilactides": potent and orally active prokinetic agents” (Bioorg Med Chem Lett, 1998).

One data set is filed under the species Oryctolagus cuniculus. The experiment in a line: In vitro smooth muscle contractility using isolated rabbit duodenum. Type of data set: functional, Muscle tissue.
The nature of data set [1]: Compound was evaluated for the half life period after oral administration in conscious dog. The settings on record: in vivo. Type of data set: ADME, organism-based, Canis lupus familiaris.
Data set [2] is described as follows: Oral bioavailability in dog (conscious). Format: ADME, organism-based, Canis lupus familiaris. The settings on record: in vivo.
The next data set is filed under the species Canis familiaris. The experiment in a line: Effective dose was evaluated for gastrointestinal motor stimulating activity in dog. Format: functional. The settings on record: Canis lupus familiaris.

The compound `CC[C@@H](O)[C@@](C)(O)C1OC(=O)[C@@H](C)[C@H](OC2C[C@@](C)(OC)C[C@H](C)O2)[C@H](C)[C@@H](O[C@@H]2O[C@H](C)C[C@H](N(C)C)[C@H]2O)[C@@H](C)[C@H]2O[C@H]([C@@H]2C)[C@@H]1C` (some centres undefined) returned a pED50 in the data set listed under Oryctolagus cuniculus of 4.35.

`CC[C@H]1OC(=O)[C@H](C)[C@@H](O[C@H]2C[C@@](C)(OC)C[C@H](C)O2)[C@H](C)[C@@H](O[C@@H]2O[C@H](C)C[C@H](N(C)CC)[C@H]2O)[C@@]2(C)CC(C)=C(O2)[C@H](C)[C@@H](O)[C@H]1C` [ALEMCINAL] yielded a pED50 in the data set listed under Oryctolagus cuniculus of 7.22.

`CC[C@H]1NC(=O)[C@H](C)[C@@H](O[C@H]2C[C@@](C)(OC)C[C@H](C)O2)[C@H](C)[C@@H](O[C@@H]2O[C@H](C)C[C@H](N(C)CC)[C@H]2O)[C@@]2(C)C[C@@H](C)[C@@H](O2)[C@H](C)[C@@H](O)[C@]1(C)O`: in the data set filed under Oryctolagus cuniculus, the pED50 was 7.11. On the same count and under the same terms, with `CC[C@H]1OC(=O)[C@H](C)[C@@H](O[C@H]2C[C@@](C)(OC)[C@@H](O)[C@H](C)O2)[C@H](C)[C@@H](O[C@@H]2O[C@H](C)C[C@H](N(C)C)[C@H]2O)[C@](C)(O)C[C@@H](C)C(=O)[C@H](C)[C@@H](O)[C@]1(C)O` [ERYTHROMYCIN] the figure was 5.85; with `CC[C@H]1NC(=O)[C@H](C)[C@@H](O[C@H]2C[C@@](C)(OC)C[C@H](C)O2)[C@H](C)[C@@H](O[C@@H]2O[C@H](C)C[C@H](N(C)CC(C)O)[C@H]2O)[C@@]2(C)C[C@@H](C)[C@@H](O2)[C@H](C)[C@@H](O)[C@]1(C)O` (some centres undefined), 6.6. As usually defined, the half-life is how long it takes for the measured level to halve. Low readings indicate fast loss, high ones slow loss. In general, bioavailability refers to the share of a dose that reaches the circulation, judged against a reference dose that is usually intravenous. In data set [1], `CC[C@H]1OC(=O)[C@H](C)[C@@H](O[C@H]2C[C@@](C)(OC)C[C@H](C)O2)[C@H](C)[C@@H](O[C@@H]2O[C@H](C)C[C@H](N(C)C)[C@H]2O)[C@@]2(C)C[C@@H](C)[C@@H](O2)[C@H](C)[C@@H](O)[C@]1(C)O` gave a half-life of 4 h. This compound came in with a bioavailability in data set [2] of 5%. Besides, the pED50 in the data set listed under Oryctolagus cuniculus was 7.8. In turn, `CC[C@H]1NC(=O)[C@H](C)[C@@H](O[C@H]2C[C@@](C)(OC)C[C@H](C)O2)[C@H](C)[C@@H](O[C@@H]2O[C@H](C)C[C@H](N(C)CCF)[C@H]2O)[C@@]2(C)C[C@@H](C)[C@@H](O2)[C@H](C)[C@@H](O)[C@]1(C)O` displayed a pED50 in the data set filed under Oryctolagus cuniculus of 6.3. On the same count and under the same terms, under `CC[C@H]1NC(=O)[C@H](C)[C@@H](O[C@H]2C[C@@](C)(OC)C[C@H](C)O2)[C@H](C)[C@@H](O[C@@H]2O[C@H](C)C[C@H](N(C)CC(C)C)[C@H]2O)[C@@]2(C)C[C@@H](C)[C@@H](O2)[C@H](C)[C@@H](O)[C@]1(C)O` stands 6.88; under `CC[C@H]1NC(=O)[C@H](C)[C@@H](O[C@H]2C[C@@](C)(OC)C[C@H](C)O2)[C@H](C)[C@@H](O[C@@H]2O[C@H](C)C[C@H](NC)[C@H]2O)[C@@]2(C)C[C@@H](C)[C@@H](O2)[C@H](C)[C@@H](O)[C@]1(C)O`, 7.25. With `CC[C@H]1NC(=O)[C@H](C)[C@@H](O[C@H]2C[C@@](C)(OC)C[C@H](C)O2)[C@H](C)[C@@H](O[C@@H]2O[C@H](C)C[C@H](N(C)C)[C@H]2O)[C@@]2(C)C[C@@H](C)[C@@H](O2)[C@H](C)[C@@H](O)[C@]1(C)O`, the half-life in data set [1] was 3.3 h. Further, the bioavailability in data set [2] was 40%. The same compound came in with a pED50 in the data set filed under Oryctolagus cuniculus of 7.5. By ED50 is commonly meant the dose at which the effect has come halfway, by size or by number of responders. High values mean a need for a large dose, low ones an effect at a small dose. In data set [1], `CC[C@H]1NC(=O)[C@H](C)[C@@H](O[C@H]2C[C@@](C)(OC)C[C@H](C)O2)[C@H](C)[C@@H](O[C@@H]2O[C@H](C)C[C@H](N(C)C(C)C)[C@H]2O)[C@@]2(C)C[C@@H](C)[C@@H](O2)[C@H](C)[C@@H](O)[C@]1(C)O` had a half-life of 3.8 h. The same compound showed a bioavailability in data set [2] of 60.5%. Further, the pED50 in the data set listed under Oryctolagus cuniculus was 8. The ED50 in the data set listed under Canis familiaris came out at 0.036 mg/kg. In turn, `CC[C@H]1NC(=O)[C@H](C)[C@@H](O[C@H]2C[C@@](C)(OC)C[C@H](C)O2)[C@H](C)[C@@H](O[C@@H]2O[C@H](C)C[C@H](N(C)CCO)[C@H]2O)[C@@]2(C)C[C@@H](C)[C@@H](O2)[C@H](C)[C@@H](O)[C@]1(C)O` came in with a pED50 in the data set filed under Oryctolagus cuniculus of 6.6.
